{"source": "PubChem BioAssay (NCI)", "test_in_all_cases": "DTP human tumour cell line panel, 48 h", "key": {"[1]": {"system": "SK-MEL-5 melanoma"}, "[2]": {"system": "OVCAR-8 ovarian"}, "[3]": {"system": "NCI-H23 lung"}, "[4]": {"system": "NCI-H226 lung"}, "[5]": {"system": "RXF 393 renal"}, "[6]": {"system": "HCT-15 colon"}, "[7]": {"system": "EKVX NSCLC"}, "[8]": {"system": "IGROV1 ovarian"}, "[9]": {"system": "CCRF-CEM leukemia"}, "[10]": {"system": "PC-3 prostate"}}, "note": "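Five compound concentrations were applied to cells in 96-well plates for 48 hours; endpoints were derived by simple linear interpolation of the resulting dose-response curve. Abbreviation: GI50, concentration required for 50% inhibition of growth. At the TGI there is no net growth.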", "data": [{"compound": "CCC(C)[C@H]1O[C@]2(C=C[C@@H]1C)C[C@@H]1C[C@@H](C/C=C(\\C)[C@@H](OC3C[C@H](OC)C(O[C@H]4C[C@H](OC)[C@@H](O)[C@H](C)O4)[C@H](C)O3)[C@@H](C)/C=C/C=C3\\CO[C@@H]4[C@H](O)C(C)=C[C@@H](C(=O)O1)[C@]34O)O2", "note": "(stereo not given in full)", "values": [{"measurement": "GI50", "setting": "[1]", "value": 0.991, "unit": "µM"}, {"measurement": "TGI", "setting": "[1]", "value": 2.28, "unit": "µM"}, {"measurement": "GI50", "setting": "[2]", "value": 1.72, "unit": "µM"}, {"measurement": "TGI", "setting": "[2]", "value": 9.73, "unit": "µM"}, {"measurement": "GI50", "setting": "[3]", "value": 1.23, "unit": "µM"}, {"measurement": "TGI", "setting": "[3]", "value": 4.16, "unit": "µM"}, {"measurement": "GI50", "setting": "[4]", "value": 1.08, "unit": "µM"}, {"measurement": "TGI", "setting": "[4]", "value": 3.27, "unit": "µM"}, {"measurement": "GI50", "setting": "[5]", "value": 0.939, "unit": "µM"}, {"measurement": "TGI", "setting": "[5]", "value": 3.5, "unit": "µM"}, {"measurement": "GI50", "setting": "[6]", "value": 1.72, "unit": "µM"}, {"measurement": "TGI", "setting": "[6]", "value": 6.79, "unit": "µM"}]}, {"compound": "CCOC1=C2C(=O)OC(=O)C2C2CCCCC2=C1", "note": "(stereo not given)", "values": [{"measurement": "TGI", "setting": "[1]", "value": "> 100", "unit": "µM"}, {"measurement": "TGI", "setting": "[7]", "value": "> 100", "unit": "µM"}, {"measurement": "TGI", "setting": "[2]", "value": "> 100", "unit": "µM"}, {"measurement": "TGI", "setting": "[3]", "value": "> 100", "unit": "µM"}, {"measurement": "TGI", "setting": "[8]", "value": "> 100", "unit": "µM"}, {"measurement": "TGI", "setting": "[9]", "value": "> 100", "unit": "µM"}, {"measurement": "TGI", "setting": "[5]", "value": "> 100", "unit": "µM"}, {"measurement": "TGI", "setting": "[6]", "value": "> 100", "unit": "µM"}]}, {"compound": "Clc1ccc(N=Nc2nc3ccccc3nc2N=Nc2ccc(Cl)cc2Cl)c(Cl)c1", "values": [{"measurement": "TGI", "setting": "[7]", "value": "> 100", "unit": "µM"}, {"measurement": "TGI", "setting": "[2]", "value": "> 100", "unit": "µM"}, {"measurement": "TGI", "setting": "[3]", "value": "> 100", "unit": "µM"}, {"measurement": "TGI", "setting": "[4]", "value": "> 100", "unit": "µM"}, {"measurement": "TGI", "setting": "[8]", "value": "> 100", "unit": "µM"}, {"measurement": "TGI", "setting": "[5]", "value": "> 100", "unit": "µM"}, {"measurement": "TGI", "setting": "[6]", "value": "> 100", "unit": "µM"}]}, {"compound": "Cc1cc2c(C)nn(Cc3ccccc3)c2c(C(N)=O)c1C", "values": [{"measurement": "TGI", "setting": "[1]", "value": "> 100", "unit": "µM"}, {"measurement": "TGI", "setting": "[7]", "value": "> 100", "unit": "µM"}, {"measurement": "TGI", "setting": "[2]", "value": "> 100", "unit": "µM"}, {"measurement": "TGI", "setting": "[3]", "value": "> 100", "unit": "µM"}, {"measurement": "TGI", "setting": "[8]", "value": "> 100", "unit": "µM"}, {"measurement": "TGI", "setting": "[9]", "value": "> 100", "unit": "µM"}, {"measurement": "TGI", "setting": "[6]", "value": "> 100", "unit": "µM"}]}, {"compound": "c1ccc(C(c2ccccc2)c2cccnc2)cc1", "values": [{"measurement": "TGI", "setting": "[1]", "value": "> 100", "unit": "µM"}, {"measurement": "TGI", "setting": "[7]", "value": "> 100", "unit": "µM"}, {"measurement": "TGI", "setting": "[2]", "value": "> 100", "unit": "µM"}, {"measurement": "TGI", "setting": "[3]", "value": "> 100", "unit": "µM"}, {"measurement": "TGI", "setting": "[4]", "value": "> 100", "unit": "µM"}, {"measurement": "TGI", "setting": "[8]", "value": "> 100", "unit": "µM"}, {"measurement": "TGI", "setting": "[9]", "value": "> 100", "unit": "µM"}, {"measurement": "TGI", "setting": "[6]", "value": "> 100", "unit": "µM"}]}, {"compound": "Cc1ccc(SSc2ccc(C)cc2C(=O)O)c(C(=O)O)c1", "values": [{"measurement": "TGI", "setting": "[1]", "value": "> 100", "unit": "µM"}, {"measurement": "TGI", "setting": "[7]", "value": "> 100", "unit": "µM"}, {"measurement": "TGI", "setting": "[2]", "value": "> 100", "unit": "µM"}, {"measurement": "TGI", "setting": "[3]", "value": "> 100", "unit": "µM"}, {"measurement": "TGI", "setting": "[4]", "value": "> 100", "unit": "µM"}, {"measurement": "TGI", "setting": "[9]", "value": "> 100", "unit": "µM"}, {"measurement": "TGI", "setting": "[5]", "value": "> 100", "unit": "µM"}]}, {"compound": "CCn1cc(C(=O)N/N=C/c2ccccc2)c(=O)c2cc(F)c(N3CCNC(C)C3)c(F)c21", "note": "(stereo not given)", "values": [{"measurement": "GI50", "setting": "[1]", "value": 1.76, "unit": "µM"}, {"measurement": "TGI", "setting": "[1]", "value": 3.14, "unit": "µM"}, {"measurement": "GI50", "setting": "[10]", "value": 1.6, "unit": "µM"}, {"measurement": "TGI", "setting": "[10]", "value": 3.01, "unit": "µM"}, {"measurement": "GI50", "setting": "[7]", "value": 1.68, "unit": "µM"}, {"measurement": "TGI", "setting": "[7]", "value": 3.09, "unit": "µM"}, {"measurement": "GI50", "setting": "[8]", "value": 1.71, "unit": "µM"}, {"measurement": "TGI", "setting": "[8]", "value": 3.2, "unit": "µM"}, {"measurement": "GI50", "setting": "[6]", "value": 1.45, "unit": "µM"}, {"measurement": "TGI", "setting": "[6]", "value": 2.82, "unit": "µM"}]}, {"compound": "CC(=O)OC[C@]12CC[C@@H](C(=O)CBr)[C@@H]1[C@H]1CC[C@@H]3[C@@]4(C)CCCNC(C)(C)[C@@H]4CC[C@@]3(C)[C@]1(C)CC2", "values": [{"measurement": "GI50", "setting": "[1]", "value": 4.55, "unit": "µM"}, {"measurement": "TGI", "setting": "[1]", "value": 15.8, "unit": "µM"}, {"measurement": "GI50", "setting": "[10]", "value": 1.65, "unit": "µM"}, {"measurement": "TGI", "setting": "[10]", "value": 3.72, "unit": "µM"}, {"measurement": "GI50", "setting": "[7]", "value": 12.5, "unit": "µM"}, {"measurement": "TGI", "setting": "[7]", "value": 25.2, "unit": "µM"}, {"measurement": "GI50", "setting": "[2]", "value": 4.1, "unit": "µM"}, {"measurement": "TGI", "setting": "[2]", "value": 23.8, "unit": "µM"}, {"measurement": "GI50", "setting": "[3]", "value": 7.01, "unit": "µM"}, {"measurement": "TGI", "setting": "[3]", "value": 23.5, "unit": "µM"}, {"measurement": "GI50", "setting": "[8]", "value": 1.83, "unit": "µM"}, {"measurement": "TGI", "setting": "[8]", "value": 3.76, "unit": "µM"}, {"measurement": "GI50", "setting": "[9]", "value": 1.06, "unit": "µM"}, {"measurement": "TGI", "setting": "[9]", "value": 3.29, "unit": "µM"}, {"measurement": "GI50", "setting": "[5]", "value": 1.83, "unit": "µM"}, {"measurement": "TGI", "setting": "[5]", "value": 3.64, "unit": "µM"}, {"measurement": "GI50", "setting": "[6]", "value": 1.65, "unit": "µM"}, {"measurement": "TGI", "setting": "[6]", "value": 3.52, "unit": "µM"}]}, {"compound": "COC(=O)[C@@]12OC[C@]34[C@H]([C@@H](O)[C@@H]1O)[C@@]1(C)[C@H](O)C(=O)C=C(C)[C@@H]1C[C@H]3OC(=O)C(OC(C)=O)[C@@H]24", "note": "(stereo not given in full)", "values": [{"measurement": "GI50", "setting": "[1]", "value": 0.0162, "unit": "µM"}, {"measurement": "TGI", "setting": "[1]", "value": 0.0406, "unit": "µM"}, {"measurement": "GI50", "setting": "[10]", "value": 0.0334, "unit": "µM"}, {"measurement": "TGI", "setting": "[10]", "value": 0.134, "unit": "µM"}, {"measurement": "GI50", "setting": "[7]", "value": 0.0529, "unit": "µM"}, {"measurement": "TGI", "setting": "[7]", "value": 0.372, "unit": "µM"}, {"measurement": "GI50", "setting": "[2]", "value": 0.0371, "unit": "µM"}, {"measurement": "TGI", "setting": "[2]", "value": 0.266, "unit": "µM"}, {"measurement": "GI50", "setting": "[3]", "value": 0.0187, "unit": "µM"}, {"measurement": "TGI", "setting": "[3]", "value": 0.0567, "unit": "µM"}, {"measurement": "GI50", "setting": "[4]", "value": 0.025, "unit": "µM"}, {"measurement": "TGI", "setting": "[4]", "value": 0.0992, "unit": "µM"}, {"measurement": "GI50", "setting": "[8]", "value": 0.0302, "unit": "µM"}, {"measurement": "TGI", "setting": "[8]", "value": 0.134, "unit": "µM"}, {"measurement": "GI50", "setting": "[5]", "value": 0.0253, "unit": "µM"}, {"measurement": "TGI", "setting": "[5]", "value": 0.0673, "unit": "µM"}, {"measurement": "GI50", "setting": "[6]", "value": 0.101, "unit": "µM"}, {"measurement": "TGI", "setting": "[6]", "value": 0.458, "unit": "µM"}]}]}
